Converted amounts (≈) assume the structure as drawn. Where two headings read alike, the source gives them in different places.
What was measured:
Format in all cases: cell-based
[1] = tested on: A549 lung cancer cell line; test: CCK-8 proliferation inhibition; details: Homo sapiens, A549, 72 h, concentration of 30 μM
In short: (§1)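 Plating at 2000 cells/well, then incubation overnight at 37° C. Next, a range of compound concentrations for 72 hours (control 1‰ DMSO). Finally, medium decanted and CCK-8 diluted 1:10 added.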

[2] = tested on: MGC-803 gastric cancer cell line; test: CCK-8 proliferation inhibition; details: concentration of 30 μM; for inhibition at 30 µM: Homo sapiens, MGC-803, 72 h
In short: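 CCK-8 read-out after 72 h drug exposure; 2000 cells/well, overnight pre-culture (37° C, 5% CO2); vehicle 1‰ DMSO. Media: PC3 F12; MGC-803/Jurkat 1640; MCF-7 DMEM high glucose; all +10% newborn bovine serum, 1% antibiotics.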

[3] = tested on: BEL-7402 liver cancer cell line; test: CCK-8 proliferation inhibition; details: concentration of 30 μM; for Inhibition of proliferation, Liver cancer BEL-7402: 72 hours, 30 µM
In short: as §1

[4] = tested on: methicillin-resistant Staphylococcus aureus (MRSA); test: MIC, two-fold agar dilution (CLSI), clinical isolates
In short: (§2)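 CLSI two-fold agar dilution; MIC of test samples read per tested strain.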

[5] = tested on: methicillin-sensitive Staphylococcus aureus (MSSA); test: as above
In short: as §2

[6] = tested on: Moraxella catarrhalis (BCA); test: as above; details: for MIC: Moraxella catarrhalis; for Anti-bacterial activity (MIC), strain BCA 14-10: clinical isolate BCA 14-10
In short: as §2

[7] = tested on: Streptococcus pneoumoniae (SPN); test: as above
In short: as §2

[8] = tested on: Enterococcus faecalis (EFA); test: as above
In short: as §2

[9] = tested on: methicillin-sensitive Staphylococcus epidermidis (MSSE); test: as above
In short: as §2

[10] = tested on: Escherichia coli (including ESBLs, non-ESBLs); test: as above
In short: as §2

[11] = tested on: Enterococcus faecium (EFM); test: as above
In short: as §2

[12] = tested on: methicillin-resistant Staphylococcus epidermidis (MRSE); test: as above
In short: as §2

[13] = MIC in vitro anti-bacterial experiments, Gram-positive bacteria; details: lowest MIC reached; read-out: minimum inhibitory concentration against Gram-positive bacteria
Description: 1. The invention adopts the two-fold agar dilution method recommended by the operating procedure of antimicrobial susceptibility testing set by American Clinical and Laboratory Standards Institute (CLSI) to determine the Minimum Inhibitory Concentration (MIC) of the test samples against the tested strains.

[14] = tested on: HCT-116 colorectal cancer cell line; test: CCK-8 proliferation inhibition; details: concentration of 30 μM, 72 hours, CCK-8; for inhibition at 30 µM: Homo sapiens, HCT-116, 72 h
In short: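 2000 cells/well, McCoy's 5A + 10% newborn bovine serum; overnight attach, 37° C./5% CO2. Cpd from DMSO stock diluted in medium, 72 h. Readout: CCK-8 (1:10). Ctrl 1‰ DMSO.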

[15] = read-out: HCT116 inhibition rate/%

## Cc1csc(NC(=O)[C@@H]2CC3(CC3)CN2C(=O)[C@H](CC2CCCC2)CN(O)C=O)n1 [Example 33]
[1]
  inhibition at 30 µM: 20%
[2]
  inhibition at 30 µM: 27%
[3]; Homo sapiens, Bel-7402, 72 h
  inhibition at 30 µM: > 50%
[3]
  Inhibition of proliferation, Liver cancer BEL-7402: 57%
[4]; strain MRSA 15-1
  MIC (anti-bacterial activity): 0.03 µg/mL (≈ 0.069 µM)
[4]; strain MRSA 15-2
  MIC (anti-bacterial activity): 0.06 µg/mL (≈ 0.138 µM)
[4]; strain MRSA 15-3
  MIC (anti-bacterial activity): < 0.008 µg/mL
[4]; strain MRSA 15-4
  MIC (anti-bacterial activity): 0.06 µg/mL (≈ 0.138 µM)
[5]; strain MSSA 15-3
  MIC (anti-bacterial activity): 0.06 µg/mL (≈ 0.138 µM)
[5]; strain MSSA 15-4
  MIC (anti-bacterial activity): 0.03 µg/mL (≈ 0.069 µM)
[5]; strain MSSA 15-5
  MIC (anti-bacterial activity): 0.03 µg/mL (≈ 0.069 µM)
[5]; strain MSSA 15-6
  MIC (anti-bacterial activity): 0.06 µg/mL (≈ 0.138 µM)
[6]; 7 clinical isolates, range over strains, read-out: Moraxella catarrhalis (n = 7) MIC
  MIC: 0.06 to 0.25 µg/mL (≈ 0.138 to 0.575 µM)
[6]; lowest MIC reached, read-out: minimum inhibitory concentration against Moraxella catarrhalis, as low as
  MIC: ≥ 0.06 µg/mL
[6]
  Anti-bacterial activity (MIC), strain BCA 14-10: 0.06 µg/mL
[6]; strain BCA 14-1
  MIC (anti-bacterial activity): 0.25 µg/mL (≈ 0.575 µM)
[6]; strain BCA 14-4
  MIC (anti-bacterial activity): 0.25 µg/mL (≈ 0.575 µM)
[6]; strain BCA 14-5
  MIC (anti-bacterial activity): 0.06 µg/mL (≈ 0.138 µM)
[6]; strain BCA 14-6
  MIC (anti-bacterial activity): 0.06 µg/mL (≈ 0.138 µM)
[6]; strain BCA 14-7
  MIC (anti-bacterial activity): 0.03 µg/mL (≈ 0.069 µM)
[6]; strain BCA 14-8
  MIC (anti-bacterial activity): 0.125 µg/mL (≈ 0.288 µM)
[7]; strain SPN 16-2
  MIC (anti-bacterial activity): 0.06 µg/mL (≈ 0.138 µM)
[7]; strain SPN 16-4
  MIC (anti-bacterial activity): 1 µg/mL (≈ 2.3 µM)
[8]; strain EFA 15-1
  MIC (anti-bacterial activity): 1 µg/mL (≈ 2.3 µM)
[8]; strain EFA 15-2
  MIC (anti-bacterial activity): 1 µg/mL (≈ 2.3 µM)
[8]; strain EFA 15-3
  MIC (anti-bacterial activity): 1 µg/mL (≈ 2.3 µM)
[8]; strain EFA 15-4
  MIC (anti-bacterial activity): 1 µg/mL (≈ 2.3 µM)
[8]; strain EFA 15-5
  MIC (anti-bacterial activity): 1 µg/mL (≈ 2.3 µM)
[8]; strain EFA 15-6
  MIC (anti-bacterial activity): 1 µg/mL (≈ 2.3 µM)
[8]; strain EFA 15-9
  MIC (anti-bacterial activity): 1 µg/mL (≈ 2.3 µM)
[9]; strain MSSE 15-3
  MIC (anti-bacterial activity): 0.125 µg/mL (≈ 0.288 µM)
[9]; strain MSSE 15-4
  MIC (anti-bacterial activity): 0.125 µg/mL (≈ 0.288 µM)
[9]; strain MSSE 15-5
  MIC (anti-bacterial activity): 0.125 µg/mL (≈ 0.288 µM)
[9]; strain MSSE 15-6
  MIC (anti-bacterial activity): 0.03 µg/mL (≈ 0.069 µM)
[10]; strain ECO+ 15-1
  MIC (anti-bacterial activity): > 32 µg/mL
[10]; strain ECO+ 15-2
  MIC (anti-bacterial activity): > 32 µg/mL
[10]; strain ECO+ 15-3
  MIC (anti-bacterial activity): > 32 µg/mL
[10]; strain ECO+ 15-4
  MIC (anti-bacterial activity): > 32 µg/mL
[10]; strain ECO− 15-1
  MIC (anti-bacterial activity): > 32 µg/mL
[10]; strain ECO− 15-2
  MIC (anti-bacterial activity): > 32 µg/mL
[10]; strain ECO− 15-3
  MIC (anti-bacterial activity): > 32 µg/mL
[10]; strain ECO− 15-4
  MIC (anti-bacterial activity): > 32 µg/mL
[11]; strain EFM 15-1
  MIC (anti-bacterial activity): 0.5 µg/mL (≈ 1.15 µM)
[11]; strain EFM 15-2
  MIC (anti-bacterial activity): 0.5 µg/mL (≈ 1.15 µM)
[11]; strain EFM 15-3
  MIC (anti-bacterial activity): 0.125 µg/mL (≈ 0.288 µM)
[11]; strain EFM 15-4
  MIC (anti-bacterial activity): 0.5 µg/mL (≈ 1.15 µM)
[11]; strain EFM 15-5
  MIC (anti-bacterial activity): 0.5 µg/mL (≈ 1.15 µM)
[11]; strain EFM 15-6
  MIC (anti-bacterial activity): 0.5 µg/mL (≈ 1.15 µM)
[12]; strain MRSE 15-1
  MIC (anti-bacterial activity): 0.015 µg/mL (≈ 0.0345 µM)
[12]; strain MRSE 15-2
  MIC (anti-bacterial activity): 0.125 µg/mL (≈ 0.288 µM)
[12]; strain MRSE 15-3
  MIC (anti-bacterial activity): 0.125 µg/mL (≈ 0.288 µM)
[12]; strain MRSE 15-7
  MIC (anti-bacterial activity): 0.125 µg/mL (≈ 0.288 µM)
[13]
  MIC: < 0.008 µg/mL
[14]; Table 5, read-out: Inhibition of proliferation, Colorectal cancer HCT116
  inhibition at 30 µM: ≥ 30%
[14]; [15]
  inhibition at 30 µM: 31%

## CC(C)(C)c1cc(NC(=O)[C@@H]2CC3(CC3)CN2C(=O)[C@H](CC2CCCC2)CN(O)C=O)no1 [Example 38]
[1]
  inhibition at 30 µM: 38%
[2]
  inhibition at 30 µM: > 50%
[2]; 72 hours, 30 µM
  Inhibition of proliferation, Gastric cancer MGC-803: 50%
[3]
  Inhibition of proliferation, Liver cancer BEL-7402: 75%
[4]; strain MRSA 15-1
  MIC (anti-bacterial activity): 0.125 µg/mL (≈ 0.271 µM)
[4]; strain MRSA 15-2
  MIC (anti-bacterial activity): 0.125 µg/mL (≈ 0.271 µM)
[4]; strain MRSA 15-3
  MIC (anti-bacterial activity): 0.125 µg/mL (≈ 0.271 µM)
[4]; strain MRSA 15-4
  MIC (anti-bacterial activity): 0.25 µg/mL (≈ 0.543 µM)
[5]; strain MSSA 15-3
  MIC (anti-bacterial activity): 0.25 µg/mL (≈ 0.543 µM)
[5]; strain MSSA 15-4
  MIC (anti-bacterial activity): 0.25 µg/mL (≈ 0.543 µM)
[5]; strain MSSA 15-5
  MIC (anti-bacterial activity): 0.125 µg/mL (≈ 0.271 µM)
[5]; strain MSSA 15-6
  MIC (anti-bacterial activity): 0.125 µg/mL (≈ 0.271 µM)
[6]
  Anti-bacterial activity (MIC), strain BCA 14-10: 0.25 µg/mL
[6]; strain BCA 14-1
  MIC (anti-bacterial activity): 0.25 µg/mL (≈ 0.543 µM)
[6]; strain BCA 14-4
  MIC (anti-bacterial activity): 1 µg/mL (≈ 2.17 µM)
[6]; strain BCA 14-5
  MIC (anti-bacterial activity): 0.5 µg/mL (≈ 1.09 µM)
[6]; strain BCA 14-6
  MIC (anti-bacterial activity): 1 µg/mL (≈ 2.17 µM)
[6]; strain BCA 14-7
  MIC (anti-bacterial activity): 0.25 µg/mL (≈ 0.543 µM)
[6]; strain BCA 14-8
  MIC (anti-bacterial activity): 0.25 µg/mL (≈ 0.543 µM)
[7]; strain SPN 16-2
  MIC (anti-bacterial activity): 0.25 µg/mL (≈ 0.543 µM)
[7]; strain SPN 16-4
  MIC (anti-bacterial activity): 0.5 µg/mL (≈ 1.09 µM)
[8]; strain EFA 15-1
  MIC (anti-bacterial activity): 4 µg/mL (≈ 8.68 µM)
[8]; strain EFA 15-2
  MIC (anti-bacterial activity): 4 µg/mL (≈ 8.68 µM)
[8]; strain EFA 15-3
  MIC (anti-bacterial activity): 0.25 µg/mL (≈ 0.543 µM)
[8]; strain EFA 15-4
  MIC (anti-bacterial activity): 4 µg/mL (≈ 8.68 µM)
[8]; strain EFA 15-5
  MIC (anti-bacterial activity): 4 µg/mL (≈ 8.68 µM)
[8]; strain EFA 15-6
  MIC (anti-bacterial activity): 4 µg/mL (≈ 8.68 µM)
[8]; strain EFA 15-9
  MIC (anti-bacterial activity): 4 µg/mL (≈ 8.68 µM)
[9]; strain MSSE 15-3
  MIC (anti-bacterial activity): 0.25 µg/mL (≈ 0.543 µM)
[9]; strain MSSE 15-4
  MIC (anti-bacterial activity): 0.25 µg/mL (≈ 0.543 µM)
[9]; strain MSSE 15-5
  MIC (anti-bacterial activity): 0.25 µg/mL (≈ 0.543 µM)
[9]; strain MSSE 15-6
  MIC (anti-bacterial activity): < 0.008 µg/mL
[10]; strain ECO+ 15-1
  MIC (anti-bacterial activity): 16 µg/mL (≈ 34.7 µM)
[10]; strain ECO+ 15-2
  MIC (anti-bacterial activity): 32 µg/mL (≈ 69.5 µM)
[10]; strain ECO+ 15-3
  MIC (anti-bacterial activity): 16 µg/mL (≈ 34.7 µM)
[10]; strain ECO+ 15-4
  MIC (anti-bacterial activity): 16 µg/mL (≈ 34.7 µM)
[10]; strain ECO− 15-1
  MIC (anti-bacterial activity): 16 µg/mL (≈ 34.7 µM)
[10]; strain ECO− 15-2
  MIC (anti-bacterial activity): 32 µg/mL (≈ 69.5 µM)
[10]; strain ECO− 15-3
  MIC (anti-bacterial activity): 32 µg/mL (≈ 69.5 µM)
[10]; strain ECO− 15-4
  MIC (anti-bacterial activity): 32 µg/mL (≈ 69.5 µM)
[11]; strain EFM 15-1
  MIC (anti-bacterial activity): 0.25 µg/mL (≈ 0.543 µM)
[11]; strain EFM 15-2
  MIC (anti-bacterial activity): 0.25 µg/mL (≈ 0.543 µM)
[11]; strain EFM 15-3
  MIC (anti-bacterial activity): 0.25 µg/mL (≈ 0.543 µM)
[11]; strain EFM 15-4
  MIC (anti-bacterial activity): 0.5 µg/mL (≈ 1.09 µM)
[11]; strain EFM 15-5
  MIC (anti-bacterial activity): 0.25 µg/mL (≈ 0.543 µM)
[11]; strain EFM 15-6
  MIC (anti-bacterial activity): 0.5 µg/mL (≈ 1.09 µM)
[12]; strain MRSE 15-1
  MIC (anti-bacterial activity): 0.25 µg/mL (≈ 0.543 µM)
[12]; strain MRSE 15-2
  MIC (anti-bacterial activity): 0.25 µg/mL (≈ 0.543 µM)
[12]; strain MRSE 15-3
  MIC (anti-bacterial activity): 0.25 µg/mL (≈ 0.543 µM)
[12]; strain MRSE 15-7
  MIC (anti-bacterial activity): 0.25 µg/mL (≈ 0.543 µM)
[13]
  MIC: < 0.008 µg/mL
[14]; [15]
  inhibition at 30 µM: > 50%
[14]; 30 µM
  HCT116 inhibition rate/%: 52%
